Ki data for 12 molecules are collected here from article PMC12664589 (Journal of Structural Biology: X, 2025).

pKi: −log10 of the molar value.

The target in one assay is CpNce103p (Candida parapsilosis, UniProt G8B6R8). In words: biochemical.
Settings: not given
The assay is classed as biochemical.
The molecule `NCc1ccc(S(N)(=O)=O)cc1` [Compound 2, 4-(aminomethyl)benzenesulfonamide] showed a pKi of 2.50. Still for that read-out and setting: the same measure for `O=[N+]([O-])c1ccccc1S(=O)(=O)Cl` [Compound 3, 2-Nitrobenzenesulfonyl chloride]: 3.06; for `C#CCCS(N)(=O)=O` [Compound 4, but-3-yne-1-sulfonamide]: 3.03. The molecule `NS(=O)(=O)c1ccccc1` [Compound 5, Benzenesulfonamide] had a pKi of 3.04.

In the case of `NN=C(c1ccccc1)c1ccccc1` [Compound 7, Benzophenone hydrazone], the pKi is 3.52. The same measure, in the same setting: under `Nc1ccc(S(N)(=O)=O)cc1` [Compound 9, Sulfanilamide] stands 3.08. Still for that read-out and setting: the same measure for `[N-]=[N+]=NCC(=O)NCCc1ccc(S(N)(=O)=O)cc1` [Compound 10, 2-azido-N-(4-sulfamoylphenethyl)acetamide]: 2.82; for `NS(=O)(=O)c1ccc([N+](=O)[O-])cc1` [Compound 13, 4-Nitrobenzenesulfonamide]: 3.73. With `NS(=O)(=O)c1cc(C(=O)O)c(NCc2ccccc2)cc1Cl` [Compound 14, 2-(benzylamino)-4-chloro-5-sulfamoylbenzoic acid], the pKi was 3.42. Same read-out and setting: under `N[C@@H](Cc1c[nH]c2ccccc12)C(=O)O` [Compound 15, L-Tryptophan] stands 3.07; under `NS(=O)(=O)C(F)(F)F` [Compound 16, Trifluoromethanesulfonamide], 5.66.

Staying with this assay, now noted: pH 7.5; read-out: Ki.
Regarding `NS(N)(=O)=O` [Compound 8, Sulfamide], the pKi is 2.80.
